Experimental data as given in patent US4925867A, “Hydrocarbon substituted pyrrolidinones, intermediates therefor, and anti-convulsant use thereof” (Merck Sharp & Dohme Ltd., priority 1988, dated 1990).

Assays:
NMDA-induced excitation = details: Evans et al., Brain Research, 1978, 148, 536-542; cited from earlier work
NMDA receptors = assay: Cortical slice studies: antagonism of responses to NMDA in rat cortical slice; assay type: cell-based; details: from righthand shift in the NMDA concentration-response curve, read-out: apparent equilibrium constant (Kb)
Protocol: The compounds useful in this invention potently and selectively block responses to NMDA in a brain slice from rat cortex, inhibit glycine binding to the strychnine-insensitive site present on the NMDA receptor, and block the potentiation of NMDA responses by glycine in cultured cortical neurones.
The effects of compounds of the invention on responses to NMDA were assessed using the rat cortical slice as described by Wong et al., Proc. Natl. Acad. Sci. USA, 1986, 83, 7104. The apparent equilibrium constant (Kb) was calculated from the righthand shift in the NMDA concentration-response curve produced by the compound under test.

Structure (SMILES): NC1CCN(O)C1=O (stereo not drawn) [HA-966, 3-amino-1-hydroxypyrrolidin-2-one]
- antagonism of NMDA-induced excitation (in words) (NMDA-induced excitation): able to antagonise selectively NMDA-induced excitation

Structure (SMILES): C[C@H]1CN(O)C(=O)[C@H]1N (relative stereo) [Example 1, cis-3-Amino-1-hydroxy-4-methylpyrrolidin-2-one]
- Kb (NMDA receptors): < 100 µM

Structure (SMILES): C[C@@H]1CN(O)C(=O)[C@@H]1N [Example 2, (3R,4R)-3-Amino-1-hydroxy-4-methylpyrrolidin-2-one]
- Kb (NMDA receptors): < 100 µM
